Eleven compounds from ChEMBL document CHEMBL3132859, “Synthesis and biological evaluation of a post-synthetically modified Trp-based diketopiperazine” (Medchemcomm, 2013) can be followed below.

Common to all, as to format: functional, cell-based
For test [1], the system named is HeLa. Briefly: Antiproliferative activity against human HeLa cells after 72 hrs by MTT assay. In general terms: Tetrazolium assays rely on reduction of a dye to a coloured formazan, in cell work by metabolically active cells.
For test [2], the system named is HT-29. The test is described as follows: Antiproliferative activity against human HT-29 cells after 24 hrs by MTT assay.
In test [3] the test system is HeLa. Briefly: Antiproliferative activity against human HeLa cells after 24 hrs by MTT assay.
Test [4] relates to HT-29. The test is described as follows: Antiproliferative activity against human HT-29 cells after 72 hrs by MTT assay.
The test system of test [5] is SK-BR-3. Briefly: Antiproliferative activity against human SKBR3 cells after 72 hrs by MTT assay.
Test [6] relates to A549. Briefly: Antiproliferative activity against human A549 cells after 72 hrs by MTT assay.
Test [7] relates to CAL-27. Briefly: Antiproliferative activity against human CAL27 cells after 72 hrs by MTT assay.
The test system of test [8] is MDA-MB-231. Briefly: Antiproliferative activity against human MDA-MB-231 cells after 72 hrs by MTT assay.

Molecules are shown by their SMILES. Active and inactive are the calls of the source. No cut-off for these calls is given here.

`O=C1N[C@@H](Cc2c[nH]c3ccccc23)C(=O)N2CCC[C@@H]12` [BREVIANAMIDE F] had an IC50 in test [1] above 200 µM.

For the compound `COc1ccccc1-c1[nH]c2ccccc2c1C[C@@H]1NC(=O)[C@@H]2CCCN2C1=O`, the result in test [2] and in test [3] was Active.

`O=C1N[C@@H](Cc2c(-c3ccc(Cl)cc3)[nH]c3ccccc23)C(=O)N2CCC[C@@H]12` showed an IC50 in test [1] of 52 µM. For the same compound, the outcome in test [4], in test [5] and in test [6] was Active.

For `O=C1N[C@@H](Cc2c(-c3cc(C(F)(F)F)cc(C(F)(F)F)c3)[nH]c3ccccc23)C(=O)N2CCC[C@@H]12`, the result in test [2] was Active.

Regarding `COc1ccc(-c2[nH]c3ccccc3c2C[C@@H]2NC(=O)[C@@H]3CCCN3C2=O)cc1`, the outcome in test [4], in test [5] and in test [6] was Active.

Turning to `Cc1ccc(-c2[nH]c3ccccc3c2C[C@@H]2NC(=O)[C@@H]3CCCN3C2=O)cc1`, the result in test [4], in test [5] and in test [6] was Active.

On to `O=C1N[C@@H](Cc2c(-c3ccccc3Cl)[nH]c3ccccc23)C(=O)N2CCC[C@@H]12`, for which the outcome in test [2] and in test [3] was Active.

Take `O=C1N[C@H](Cc2c(-c3ccc(C(F)(F)F)cc3)[nH]c3ccccc23)C(=O)N2CCC[C@H]12`: the result in test [7], in test [8] and in test [6] was Active.

`O=C1N[C@@H](Cc2c(-c3ccc(C(F)(F)F)cc3)[nH]c3ccccc23)C(=O)N2CCC[C@@H]12`: the result in test [7], in test [8], in test [4], in test [5] and in test [6] was Active. In test [1], this compound had an IC50 of 26 µM.

For `O=C1N[C@@H](Cc2c(-c3ccccc3C(F)(F)F)[nH]c3ccccc23)C(=O)N2CCC[C@@H]12`, the outcome in test [2] and in test [3] was Active.

Regarding `COC(=O)c1ccc(-c2[nH]c3ccccc3c2C[C@@H]2NC(=O)[C@@H]3CCCN3C2=O)cc1`, the result in test [4], in test [5] and in test [6] was Active.

Usually IC50 stands for the concentration needed to halve the response being measured. A low value points to inhibition by little substance.
